The values below come from patent US12331058B2, “SHP2 and CDK4/6 dual-target inhibitory compound and pharmaceutical composition containing the same” (CHINA PHARMACEUTICAL UNIVERSITY, priority 2021, dated 2025).

As usually defined, the IC50 is the midpoint of a concentration-inhibition curve.

Assay [1] deals with CDK4 (Homo sapiens, UniProt P11802). Description: CDK4 enzyme activity test in vitro. Format: biochemical. To be noted: Caliper EZ Reader II conversion.
Description: CDK4 Enzyme Activity Test In Vitro
(§1) The compound is dissolved in 100% DMSO to prepare into a 30 mM storage solution, which is stored in −20° C. refrigerator in the dark.
(1) 1×Kinase buffer is prepared.
(2) The preparation of concentration gradient of the compound: tested compound is tested at an initial concentration of 30000 nM according to a customer's request, diluted into a 100% DMSO solution at a 100-fold final concentration in a 384 source plate, diluted by 3-fold with 10 concentrations, 250 nL of compound with a 100-fold final concentration is transferred to the target plate of 384-well-plate by using a dispenser Echo 550.
(3) A Kinase solution with a 2.5-fold final concentration is prepared by using a 1×Kinase buffer.
(4) 10 μL of kinase solution with a 2.5-fold final concentration is added to the compound wells and the positive control wells, respectively; 10 μL of 1×Kinase buffer is added to the negative control wells.
(5) The kinase solution is centrifugated at 1000 rpm for 30 seconds, and incubated at the room temperature for 10 minutes after the reaction plate is shaken and mixed uniformly.
(7) The reaction is initiated by adding 15 μL of the mixed solution of ATP and substrate at a 5/3-fold final concentration.
(8) The 384-well plate is centrifuged at 1000 rpm for 30 seconds, and incubated at the room temperature for 180 minutes after shaking and mixing uniformly.
(9) The kinase reaction is terminated by adding 30 μL of termination detection solution, centrifuged at 1000 rpm for 30 seconds with shaking and mixing uniformly.
(10) The conversion is read by using Caliper EZ Reader II.
Calculation Formula is as follows:
Conversion %_sample denotes a conversion reading of the sample; Conversion % min denotes an average value for negative control wells, represents a conversion reading without enzyme wells; Convesion %_max denotes an average value for positive control wells, represents a conversion reading without compound inhibition wells.
In assay [2] the target is T1, SHP2 (Homo sapiens, UniProt Q06124).
T1 sequence (Q06124 1-593): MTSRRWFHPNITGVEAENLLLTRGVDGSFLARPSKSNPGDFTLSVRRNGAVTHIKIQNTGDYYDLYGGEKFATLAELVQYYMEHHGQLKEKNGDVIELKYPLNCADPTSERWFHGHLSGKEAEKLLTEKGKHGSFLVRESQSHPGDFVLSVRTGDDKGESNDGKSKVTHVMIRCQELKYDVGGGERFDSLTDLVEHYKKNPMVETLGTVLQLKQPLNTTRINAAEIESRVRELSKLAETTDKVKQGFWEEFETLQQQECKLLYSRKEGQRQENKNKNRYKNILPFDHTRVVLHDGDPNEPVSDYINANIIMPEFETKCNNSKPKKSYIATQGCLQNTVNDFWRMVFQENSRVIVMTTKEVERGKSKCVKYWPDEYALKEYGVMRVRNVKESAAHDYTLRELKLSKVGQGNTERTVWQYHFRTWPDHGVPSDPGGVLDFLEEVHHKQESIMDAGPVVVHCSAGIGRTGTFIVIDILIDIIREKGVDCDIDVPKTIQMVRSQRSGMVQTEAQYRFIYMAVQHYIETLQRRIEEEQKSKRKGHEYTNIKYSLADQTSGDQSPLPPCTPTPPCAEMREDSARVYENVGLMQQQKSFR
Description: SHP2 enzyme activity test in vitro.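 Further: IC50 derived by variable-slope curve fitting of percent inhibition of SHP2 enzymatic activity plotted against log compound concentration.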
Description: SHP2 Enzyme Activity Test In Vitro
SHP2 enzyme activity of the compounds in the above examples are tested as follows.
as §1
The log value for concentration is taken as X-axis and the percent inhibition is taken as Y-axis, and the log (inhibitor) vs. response variable slope of the analysis software GraphPad Prism 5 is used to fit the dose-response curve to obtain the IC50 values for each compound on enzyme activity.

The structures appear in SMILES notation.

CDK4, sequence (P11802 whole entry): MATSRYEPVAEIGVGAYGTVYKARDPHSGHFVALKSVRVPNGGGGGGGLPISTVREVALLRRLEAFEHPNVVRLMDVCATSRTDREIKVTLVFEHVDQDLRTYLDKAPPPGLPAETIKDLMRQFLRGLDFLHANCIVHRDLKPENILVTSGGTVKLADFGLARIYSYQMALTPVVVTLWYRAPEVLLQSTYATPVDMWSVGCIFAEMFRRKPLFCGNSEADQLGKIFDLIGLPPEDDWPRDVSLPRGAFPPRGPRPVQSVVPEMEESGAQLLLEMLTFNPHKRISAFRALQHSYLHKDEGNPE
CDK4, sequence (P30281 whole entry partner): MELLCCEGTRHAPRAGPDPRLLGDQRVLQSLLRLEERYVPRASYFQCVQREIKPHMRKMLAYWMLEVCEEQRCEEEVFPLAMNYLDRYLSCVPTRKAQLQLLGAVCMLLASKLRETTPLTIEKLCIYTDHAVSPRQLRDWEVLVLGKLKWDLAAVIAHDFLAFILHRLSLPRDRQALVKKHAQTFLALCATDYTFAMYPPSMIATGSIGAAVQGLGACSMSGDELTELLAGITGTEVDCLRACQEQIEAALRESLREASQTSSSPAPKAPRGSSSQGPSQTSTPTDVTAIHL

For `Cc1nc2c(F)cc(-c3nc(Nc4cnc(Sc5cnc(N6CCC7(CC6)CO[C@@H](C)[C@H]7N)cn5)c(Cl)c4)ncc3F)cc2n1C(C)C` [Compound 13], the values for the IC50 in assay [1] and in assay [2] were 11 nM and 216 nM, respectively.
Consider `Cc1nc2c(F)cc(-c3nc(Nc4ccc(Cl)c(Sc5cnc(N6CCC7(CC6)CO[C@@H](C)[C@H]7N)cn5)n4)ncc3F)cc2n1C(C)C` [Compound 20], for which the values for the IC50 in assay [1] and in assay [2] were 123 nM and 598 nM, respectively.
Taken in the same sequence, the figures for `Cc1nc2c(F)cc(-c3nc(Nc4ccc(Sc5cnc(N6CCC7(CC6)CO[C@@H](C)[C@H]7N)cn5)c(C#N)n4)ncc3F)cc2n1C(C)C` [Compound 12] were 141 nM and above 1000 nM.
Taken in the same sequence, the figures for `CN(C)C(=O)c1cc2cnc(Nc3ccc(Sc4cnc(N5CCC6(CC5)Cc5ccccc5[C@H]6N)cn4)c(Cl)c3)nc2n1C1CCCC1` [Compound 3] were above 1000 nM and 57 nM.
Taken in the same sequence, the figures for `CN(C)C(=O)c1cc2cnc(Nc3ccc(Sc4cnc(N5CCC6(CC5)Cc5ccccc5[C@H]6N)cn4)c(Cl)n3)nc2n1C1CCCC1` [Compound 9] were 538 nM and 36 nM.
`Cc1nc2c(F)cc(-c3nc(Nc4ccc(Sc5cnc(N6CCC(C)(N)CC6)cn5)c(C#N)n4)ncc3F)cc2n1C(C)C` [Compound 11]: the IC50 in assay [1] was 31 nM; in assay [2], above 1000 nM.
The like results for `CN(C)C(=O)c1cc2cnc(Nc3nccc(Sc4cnc(N5CCC(C)(N)CC5)cn4)c3Cl)nc2n1C1CCCC1` [Compound 4] were, in that order, 435 nM and 30 nM.
Take `CN(C)C(=O)c1cc2cnc(Nc3nccc(Sc4cnc(N5CCN([C@H]6Cc7ccccc7[C@H]6N)CC5)cn4)c3Cl)nc2n1C1CCCC1` [Compound 8]: the IC50 in assay [1] is 905 nM; in assay [2], above 1000 nM.
With `Cc1nc2c(F)cc(-c3nc(Nc4cc(Sc5cnc(N6CCC7(CC6)CO[C@@H](C)[C@H]7N)cn5)c(Cl)cn4)ncc3F)cc2n1C(C)C` [Compound 17], the IC50 in assay [1] and in assay [2] was above 1000 nM in each case.
Turning to `CN(C)C(=O)c1cc2cnc(Nc3ccc(Sc4cnc(N5CCC(C)(N)CC5)cn4)cn3)nc2n1C1CCCC1` [Compound 2], the IC50 in assay [1] was 9 nM; in assay [2], above 1000 nM.
As to `CN(C)C(=O)c1cc2cnc(Nc3nccc(Sc4cnc(N5CCC6(CC5)Cc5ccccc5[C@H]6N)cn4)c3Cl)nc2n1C1CCCC1` [Compound 5], the IC50 was above 1000 nM in assay [1] and 4 nM in assay [2].
Compound `CN(C)C(=O)c1cc2cnc(Nc3ccc(Sc4cnc(N5CCC(C)(N)CC5)cn4)c(Cl)n3)nc2n1C1CCCC1` [Compound 16] showed a half-maximal inhibitory concentration (IC50) in assay [2] above 1000 nM.
With `Cc1nc2c(F)cc(-c3nc(Nc4ccc(Sc5cnc(N6CCC7(CC6)CO[C@@H](C)[C@H]7N)cn5)c(Cl)n4)ncc3F)cc2n1C(C)C` [Compound 15], the IC50 was 145 nM in assay [1] and above 1000 nM in assay [2].
The like results for `CN(C)C(=O)c1cc2cnc(Nc3nccc(Sc4cnc(N5CC[C@H](N)c6ccccc6C5)cn4)c3Cl)nc2n1C1CCCC1` [Compound 6] were, in that order, above 1000 nM and 736 nM.
For the compound `CN(C)C(=O)c1cc2cnc(Sc3cnc(N4CCC(C)(N)CC4)cn3)cc2n1C1CCCC1` [Compound 1], the IC50 in assay [1] and in assay [2] was above 1000 nM each time.
With `Cc1nc2c(F)cc(-c3nc(Nc4cc(Cl)c(Sc5cnc(N6CCC7(CC6)CO[C@@H](C)[C@H]7N)cn5)cn4)ncc3F)cc2n1C(C)C` [Compound 21], the values for the IC50 in assay [1] and in assay [2] were 9 nM and above 1000 nM, respectively.
For `Cc1nc2c(F)cc(-c3nc(Nc4ccc(Sc5cnc(N6CCC7(CC6)Cc6ccccc6[C@H]7N)cn5)c(Cl)n4)ncc3F)cc2n1C(C)C` [Compound 24], the IC50 in assay [1] and in assay [2] was above 1000 nM throughout.
In the case of `CN(C)C(=O)c1cc2cnc(N(c3ncc4cc(C(=O)N(C)C)n(C5CCCC5)c4n3)c3nccc(Sc4cnc(N5CC[C@H](N)c6ccccc6C5)cn4)c3Cl)nc2n1C1CCCC1` [Compound 7], the IC50 in assay [1] and in assay [2] was above 1000 nM throughout.
